Experimental data taken from article PMC4557121, “TRB3 links insulin/IGF to tumour promotion by interacting with p62 and impeding autophagic/proteasomal degradations” (Nature Communications, 2015).
Read-outs that look alike come from different tables or passages of the source. Where a SMILES comes first, the peptide text is derived from it. Where no end group is shown, it is not given here. The star is where a group is joined. Cbz = O=C(OCc1ccccc1)*

Tests used:
[1] = system: B16-F10 cells; assay: B16-F10 tumour growth and metastasis in TRB3 knockdown KK-Ay mice given 3-MA or MG132; type: in vivo; settings: KK-Ay/TRB3-KD mice, B16-F10 s.c. or i.v.; 3-MA 30 mg kg^−1 per day or MG132 2.5 mg kg^−1 twice a week i.p.; n=6 per group; Supplementary Fig. 4g,h
Procedure: Seven-week-old KK-Ay mice were i.p. injected with TRB3-shRNA lentiviral particles (2 × 10^5 plaque-forming unit) to generate KK-Ay/TRB3-KD mice; over 75% depletion of TRB3 in target tissues (lungs and liver) was considered as effectively knocking down. 3-MA (30 mg kg^−1 per day) or MG132 (2.5 mg kg^−1 twice a week) was i.p. injected to the KK-Ay/TRB3-KD mice, from day 9 after tumour inoculation to the time of being killed. The evaluation of tumour growth and metastasis was described in the section of ‘Mouse Models for Tumour Growth and Metastasis'.
control-shRNA. Data are the summarized fold changes of proteins (control-
shRNA/TRB3-shRNA1) (upper) and representative spots showing
differentially expressed EGFR (framed) (lower). Data are representative of 2
independent assays. (e) The xenograft tumours express higher pro-
metastasis and pro-EMT factors in KK-Ay mice than that in C57 BL/6 mice.
Data are representative immunoblots of 4 independent assays. (f) The liver
and lung tissues express higher pro-metastasis and pro-EMT factors in
DMBA-treated KK-Ay mice than that in DMBA-treated C57 BL/6. Data are
representative immunoblots of 4 independent assays. (g,h) Suppressing
autophagy or UPS reverses the antitumour effect of TRB3 knockdown. TRB3
knockdown KK-Ay mice were s.c. injected with B16-F10 cells ([…]) or i.v. […]
Statistical significance was determined by Student’s t-test; *P<0.05, **P<0.01,

[2] = system: TRB3-silenced HepG2 cells; assay: Protein turnover assay in TRB3-silenced HepG2 cells with degradation inhibitors; type: cell-based, human; settings: inhibitor 12 h, immunoblot, Fig. 3f
Procedure: Figure 3 Enhanced TRB3 compromises selective autophagy and clearance of UPS. (a) BEAS-2B cells were infected with TRB3-Myc-adenovirus expressing Myc-Tagged TRB3 with an independently expressing GFP. GFP-adenovirus was used as control. Indicated molecules were detected by immunoblotting. Data are representatives of four independent assays. (b) TRB3-silenced cells were treated with IGF-1 (100 nM) for 12 h and indicated proteins were detected by immunoblotting. Data are representatives of four independent assays. (c) Control or TRB3-silenced HepG2 cells were infected with adenovirus with mRFP-GFP-LC3-PE. After 24 h, the cells were treated with IGF-1 (100 nM) for 12 h and the flux rate of autophagy was detected with Live Cell Imaging Microscopy. Data are schematic drawing of the autophagy process (upper) and microscopy images showing red-coloured autophagolysosomes or red/green double-coloured autophagosomes (lower). Scale bar, 10 μm. See also Supplementary Movies 1–6. (d) Silencing TRB3 increased the number of autophagosomes (Avi) and autolysosomes (Avd) in HepG2 cells treated with or without IGF-1 (100 nM). Data are representative images of TEMs of three independent assays. Single arrows denote Avi; double arrows indicate Avd. Scale bar, 500 nm. The ratio of autophagic vacuole area to the cytoplasmic area was determined by morphometric analysis. Data are means±s.e.m. (e) TRB3-silenced cells were treated with IGF-1 (100 nM) for 12 h. Expression of indicated proteins was detected by immunoblotting. Data are representatives of four independent assays. (f) TRB3-silenced HepG2 cells were treated with bafilomycin (left) or MG132 (right) for 12 h. Indicated proteins were detected by immunoblotting. […] The cells were treated with or without IGF-1 for 12 h and the expression of Ub^G76V-GFP was immunoblotted with anti-GFP antibody (Ab; left) or detected with flow cytometry (right). […] The proliferative and invasive capacities of cells were evaluated with Edu (h) and transwell assays (i). Statistical significance was determined with one-way analysis of variance (ANOVA); *P<0.05; **P<0.01; ***P<0.001. […]

[3] = biological target: T1, TRB3 (Homo sapiens, UniProt Q96RU7); assay: Surface plasmon resonance binding of peptides to immobilized TRB3
T1 sequence (Q96RU7 1-358): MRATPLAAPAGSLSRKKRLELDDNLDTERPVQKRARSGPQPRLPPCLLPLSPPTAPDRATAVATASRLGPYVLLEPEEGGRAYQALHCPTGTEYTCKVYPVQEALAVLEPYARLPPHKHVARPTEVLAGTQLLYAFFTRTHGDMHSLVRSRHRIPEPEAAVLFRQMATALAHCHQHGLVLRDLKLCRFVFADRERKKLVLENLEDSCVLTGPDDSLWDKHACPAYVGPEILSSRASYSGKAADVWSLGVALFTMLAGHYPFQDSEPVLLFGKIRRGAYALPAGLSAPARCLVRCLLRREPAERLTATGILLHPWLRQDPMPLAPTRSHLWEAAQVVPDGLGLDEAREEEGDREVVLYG
Procedure: Binding kinetics between TRB3 and control, P2, P4, P6, P7, P8, P9, P11, A1, A2 or A3 were measured by a surface plasmon resonance assay using BIAcore T200 instrument (GE Healthcare, Pittsburgh, USA)[53]. The dissociation constant (KD) was calculated according to the BIA-evaluation software.

[4] = system: p62; assay: Cycloheximide chase of p62 degradation in HepG2 cells; type: cell-based, human; settings: CHX 10 μg ml^−1 after insulin/IGF-1 stimulation, 8.5 h without stimulation, three independent assays, Fig. 4b
Procedure: Figure 4 TRB3 mediates insulin/IGF-induced p62 accumulation. (a) HepG2 cells were treated with indicated stimulators for 12 h. The mRNAs were determined with RT–PCR using specific primer sets. Data are means±s.e.m of three independent assays. (b) HepG2 cells were incubated with cycloheximide (CHX) (10 μg ml^−1) for indicated time points after insulin/IGF-1 stimulation. Indicated proteins were detected with immunoblotting. Data are means±s.e.m of three independent assays. (c) Control or TRB3-silenced cells were incubated with CHX (10 μg ml^−1) for indicated time points after IGF-1 stimulation. Cell lysates were isolated for immunoblotting. Data are means±s.e.m of three independent assays. (d) HepG2 cells expressing p62- or control-siRNA were co-transfected with Ub^G76V-GFP. The cells were treated with IGF-1 for 12 h. The cell lysates were isolated for immunoblotting. Data are representative of immunoblots of three independent assays. (e) Cells expressing control-shRNA or TRB3-shRNAs were transfected with Ub^G76V-GFP plasmid plus or minus with p62-DDK-expressing plasmid. The lysates were isolated for immunoblotting. […] After 24 h, the cells were treated with IGF-1 for 12 h, and the flux rate of autophagy was detected with Live Cell Imaging Microscopy. […] Indicated proteins were evaluated with immunoblotting. […] Statistical significance was determined with Student's t-test; *P<0.05. […]

[5] = SPR, BIAcore T200, peptide passed over TRB3 immobilized on CM5 sensor chip, alanine scan of A2, Fig. 6f, read-out: KD

Q: How did the “effect on antitumour actions of TRB3 deficiency” value [1] turn out when `Cn1cnc(N)c2ncnc1-2` [3-MA] was run?
A: The value was “overturn the antitumour actions of TRB3 deficiency”.

Q: Which results are given for `CC(C)C[C@@H](C=O)NC(=O)[C@H](CC(C)C)NC(=O)[C@H](CC(C)C)NC(=O)OCc1ccccc1` [MG132] (Cbz-Leu-Leu-Leu-aldehyde)?
A: effect on antitumour actions of TRB3 deficiency [1]: overturn the antitumour actions of TRB3 deficiency; turnover of COX2, Twist and MMP-2 [2]: inhibited

Q: With `CO/C1=C\C(C)=C\[C@@H](C)[C@@H](O)[C@@H](C)C/C(C)=C/C=C/[C@H](OC)[C@@H]([C@@H](C)[C@@H](O)[C@H](C)[C@@]2(O)C[C@@H](O)[C@H](C)[C@@H](C(C)C)O2)OC1=O` [bafilomycin] as the compound, how does the “turnover of COX2, Twist and MMP-2” value [2] read?
A: Its value is “not inhibited”.

Q: What about the “turnover of LC3, EGFR, c-Myc, MMP1 and p62” value [2] of the same compound?
A: The value was “inhibited”.

Q: Which Kd [3] does the source give for AGWLTRLLQTK [M1] here?
A: Its Kd is 1.64 µM.

Q: How did the Kd [3] turn out when GAWLTRLLQTK [M2] was run?
A: Its Kd is 0.402 µM.

Q: GGALTRLLQTK [M3] was tested. Which Kd [3] did it give?
A: Its Kd is 3.59 µM.

Q: How did the Kd [3] turn out when GGWATRLLQTK [M4] was run?
A: The Kd was 4.32 µM.

Q: With GGWLARLLQTK [M5] as the compound, how does the Kd [3, 5] read?
A: Its Kd is 0.11 µM.

Q: For GGWLTALLQTK [M6], which Kd [3, 5] is on record?
A: Its Kd is 0.000142 µM.

Q: How did the Kd [3, 5] turn out when GGWLTRALQTK [M7] was run?
A: The Kd was 11.8 µM.

Q: Which Kd [3] does the source give for GGWLTRLLATK [M9] here?
A: Its Kd is 35.6 µM.

Q: For GGWLTRLLQAK [M10], which Kd [3] is on record?
A: Its Kd is 0.381 µM.

Q: With GGWLTRLLQTA [M11] as the compound, how does the Kd [3] read?
A: Its Kd is 0.0731 µM.

Q: How did the “half-life of p62 degradation” value [4] turn out when IGF-1 was run?
A: The value was 24 h.

Q: How did the “half-life of p62 degradation” value [4] turn out when insulin was run?
A: Its value is 24 h.
